Among the data in ChEMBL document CHEMBL1127656, “Articulating a pharmacophore driven synthetic strategy: Discovery of a potent substance P antagonist” (Bioorg Med Chem Lett, 1994) are Ki values, retold here.

The assay concerns the target Substance-P receptor (Homo sapiens, UniProt P25103). The assay can be described thus: In vitro binding affinity towards human NK-1 receptor in IM-9 cells using [3H]SP of substance P antagonist. In kind it is cell-based.

The structures appear in SMILES notation. pKi: −log10 of the molar value.

Substance-P receptor, sequence (P25103 whole entry): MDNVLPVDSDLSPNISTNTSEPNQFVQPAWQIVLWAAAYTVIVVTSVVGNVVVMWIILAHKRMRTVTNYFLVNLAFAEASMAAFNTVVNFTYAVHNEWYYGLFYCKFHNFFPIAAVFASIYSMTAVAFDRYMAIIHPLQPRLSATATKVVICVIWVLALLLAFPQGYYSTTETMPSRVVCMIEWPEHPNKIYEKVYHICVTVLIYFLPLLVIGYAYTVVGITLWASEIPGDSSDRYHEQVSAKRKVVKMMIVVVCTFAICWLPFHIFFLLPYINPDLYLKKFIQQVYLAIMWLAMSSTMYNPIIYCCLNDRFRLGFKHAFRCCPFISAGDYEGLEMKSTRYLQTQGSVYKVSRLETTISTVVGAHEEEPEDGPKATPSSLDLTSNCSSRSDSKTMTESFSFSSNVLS

With `COc1ccccc1CN[C@H]1[C@@H]2CCC[C@@H]2N[C@H]1c1ccccc1` (racemic), the pKi (in general, −log10 of the Ki, conventionally taken in molar units) is 8.62.
